Like-named read-outs stand apart in the source and are kept apart here.
Test system: 280 human cancer cell lines
Test: OncoPanel cell proliferation assay (10-day)
Type: cell-based
Settings: Homo sapiens; for GI50: read-out: Cell Count GI50; for IC50: read-out: Cell Count IC50; for EC50: read-out: Cell Count EC50
[1] = KHOS-240S, Soft Tissue - Osteosarcoma
[2] = ME-180, ME-180, Female GU - Ovary
[3] = MG-63, MG-63, Soft Tissue - Osteosarcoma
[4] = MHH-PREB-1, MHH-PREB-1, Leukemia
[5] = MIA PaCa-2, Mia PaCa-2, Pancreas
[6] = MS751, MS751, Female GU - Ovary
[7] = Malme-3M, MALME3M, Skin (Melanoma)
[8] = NCI-H292, NCI-H292, Lung - NSCLC
[9] = NCI-H295R, Endocrine - Adrenal gland
[10] = NCI-H441, NCIH441, Lung - NSCLC
[11] = NCI-H460, NCI-H460, Lung - NSCLC
[12] = NCI-H520, NCI-H520, Lung - NSCLC
[13] = NCI-H596, NCI-H596, Lung - NSCLC
[14] = NCI-H661, NCI-H661, Lung - NSCLC
[15] = NTERA-2-cl-D1, NTERA-2 cl.D1, Testis
[16] = OVCAR-3, OVCAR3, Female GU - Ovary
[17] = RPMI-7951, RPMI-7951, Skin (Melanoma)
[18] = SAOS-2, SaOS2, Soft Tissue - Osteosarcoma

CC(C)=CCC[C@@H]1C(O)Oc2c(C)cc(O)c3c2[C@H]1CC[C@H]3C (stereo partly shown) [Compound 2, 5,18-epoxyserrulat-14-en-8,18-diol]
GI50 [1]: 4.58 µM
IC50 [1]: 4.59 µM
EC50 (KLE, Female GU - Uterus): 26.3 µM
GI50 (KLE, Female GU - Uterus): 20.5 µM
IC50 (KLE, Female GU - Uterus): 26.3 µM
EC50 (KPL-1, KPL-1, Breast): 4.7 µM
GI50 (KPL-1, KPL-1, Breast): 4.7 µM
IC50 (KPL-1, KPL-1, Breast): 4.73 µM
EC50 (KU812, KU812, Leukemia): 6.52 µM
GI50 (KU812, KU812, Leukemia): 5.66 µM
IC50 (KU812, KU812, Leukemia): 6.52 µM
EC50 (L-428, L-428, Lymphoma): 8.87 µM
GI50 (L-428, L-428, Lymphoma): 8.83 µM
IC50 (L-428, L-428, Lymphoma): 8.87 µM
EC50 (LNCaP, Prostate): 0.86 µM
GI50 (LNCaP, Prostate): 0.28 µM
IC50 (LNCaP, Prostate): 0.86 µM
EC50 (LS-123, LS123, Colon): 6.57 µM
GI50 (LS-123, LS123, Colon): 13.4 µM
IC50 (LS-123, LS123, Colon): 18.4 µM
EC50 (LS-411N, LS411N, Colon): 23.9 µM
GI50 (LS-411N, LS411N, Colon): 23.4 µM
IC50 (LS-411N, LS411N, Colon): 23.9 µM
EC50 (LS-1034, LS1034, Colon): 12.7 µM
GI50 (LS-1034, LS1034, Colon): 12 µM
IC50 (LS-1034, LS1034, Colon): 12.7 µM
EC50 (M059J, CNS - Glioma): 9.98 µM
GI50 (M059J, CNS - Glioma): 14.2 µM
IC50 (M059J, CNS - Glioma): 15.8 µM
EC50 (MC116, MC116, Lymphoma): 13.8 µM
GI50 (MC116, MC116, Lymphoma): 13.8 µM
IC50 (MC116, MC116, Lymphoma): 13.8 µM
EC50 (MC-IXC, CNS - Neuroblastoma): 16.9 µM
GI50 (MC-IXC, CNS - Neuroblastoma): 16.9 µM
IC50 (MC-IXC, CNS - Neuroblastoma): 16.9 µM
EC50 (MCF7, MCF7, Breast): 10.4 µM
GI50 (MCF7, MCF7, Breast): 9.96 µM
IC50 (MCF7, MCF7, Breast): 10.4 µM
EC50 (MDA-MB-231, MDA MB 231, Breast): 4.39 µM
GI50 (MDA-MB-231, MDA MB 231, Breast): 4.36 µM
IC50 (MDA-MB-231, MDA MB 231, Breast): 4.39 µM
EC50 (MDA-MB-436, MDA-MB-436, Breast): 9.72 µM
GI50 (MDA-MB-436, MDA-MB-436, Breast): 9.73 µM
IC50 (MDA-MB-436, MDA-MB-436, Breast): 9.77 µM
EC50 (MDA-MB-453, MDA MB 453, Breast): 3.68 µM
GI50 (MDA-MB-453, MDA MB 453, Breast): 3.65 µM
IC50 (MDA-MB-453, MDA MB 453, Breast): 3.69 µM
EC50 (MDA-MB-468, MDA MB 468, Breast): 8.07 µM
GI50 (MDA-MB-468, MDA MB 468, Breast): 8 µM
IC50 (MDA-MB-468, MDA MB 468, Breast): 8.08 µM
EC50 [2]: > 30 µM
GI50 [2]: > 30 µM
IC50 [2]: > 30 µM
EC50 (MEG-01, MEG01, Leukemia): 13.8 µM
GI50 (MEG-01, MEG01, Leukemia): 13.7 µM
IC50 (MEG-01, MEG01, Leukemia): 13.8 µM
EC50 (MES-SA, Soft Tissue - Sarcoma): 9.26 µM
GI50 (MES-SA, Soft Tissue - Sarcoma): 9.22 µM
IC50 (MES-SA, Soft Tissue - Sarcoma): 9.26 µM
EC50 [3]: > 30 µM
GI50 [3]: > 30 µM
IC50 [3]: > 30 µM
EC50 [4]: 7.85 µM
GI50 [4]: 7.85 µM
IC50 [4]: 7.85 µM
EC50 [5]: 16.3 µM
GI50 [5]: 16.2 µM
IC50 [5]: 16.3 µM
EC50 (MOLT-3, MOLT-3, Leukemia): 1.27 µM
GI50 (MOLT-3, MOLT-3, Leukemia): 1.26 µM
IC50 (MOLT-3, MOLT-3, Leukemia): 1.27 µM
EC50 (MOLT-16, MOLT-16, Leukemia): 13.3 µM
GI50 (MOLT-16, MOLT-16, Leukemia): 13.3 µM
IC50 (MOLT-16, MOLT-16, Leukemia): 13.3 µM
EC50 [6]: 7.55 µM
GI50 [6]: 8.72 µM
IC50 [6]: 8.78 µM
EC50 (MT-3, Colon): 16.9 µM
GI50 (MT-3, Colon): 16.8 µM
IC50 (MT-3, Colon): 16.9 µM
EC50 (MV4-11, MV-4-11, Leukemia): 8.56 µM
GI50 (MV4-11, MV-4-11, Leukemia): 8.52 µM
IC50 (MV4-11, MV-4-11, Leukemia): 8.56 µM
EC50 (MX1, Leukemia): 10.8 µM
GI50 (MX1, Leukemia): 10.8 µM
IC50 (MX1, Leukemia): 10.8 µM
EC50 [7]: 19.8 µM
GI50 [7]: 17.3 µM
IC50 [7]: 19.8 µM
EC50 (MeWo, Skin (Melanoma)): 9.45 µM
GI50 (MeWo, Skin (Melanoma)): 9.91 µM
IC50 (MeWo, Skin (Melanoma)): 9.97 µM
EC50 (NALM-6, NALM-6, Leukemia): 1.67 µM
GI50 (NALM-6, NALM-6, Leukemia): 1.68 µM
IC50 (NALM-6, NALM-6, Leukemia): 1.68 µM
EC50 (NAMALWA, Lymphoma): 5.71 µM
GI50 (NAMALWA, Lymphoma): 5.7 µM
IC50 (NAMALWA, Lymphoma): 5.71 µM
EC50 (NCI-H69, NCI-H69, Lung - SCLC): 16.2 µM
GI50 (NCI-H69, NCI-H69, Lung - SCLC): 14.9 µM
IC50 (NCI-H69, NCI-H69, Lung - SCLC): 16.2 µM
EC50 [8]: 16.7 µM
GI50 [8]: 16.6 µM
IC50 [8]: 16.7 µM
EC50 [9]: > 30 µM
GI50 [9]: > 30 µM
IC50 [9]: > 30 µM
EC50 [10]: > 30 µM
GI50 [10]: > 30 µM
IC50 [10]: > 30 µM
EC50 (NCI-H446, NCIH446, Lung - SCLC): 9.75 µM
GI50 (NCI-H446, NCIH446, Lung - SCLC): 9.77 µM
IC50 (NCI-H446, NCIH446, Lung - SCLC): 9.85 µM
EC50 [11]: 5.57 µM
GI50 [11]: 5.91 µM
IC50 [11]: 5.92 µM
EC50 (NCI-H508, NCI-H508, Colon): > 30 µM
GI50 (NCI-H508, NCI-H508, Colon): > 30 µM
IC50 (NCI-H508, NCI-H508, Colon): > 30 µM
EC50 [12]: 9.03 µM
GI50 [12]: 9.17 µM
IC50 [12]: 9.2 µM
EC50 [13]: 12 µM
GI50 [13]: 14.4 µM
IC50 [13]: 15.1 µM
EC50 [14]: 9.51 µM
GI50 [14]: 9.51 µM
IC50 [14]: 9.51 µM
EC50 (NCI-H747, NCI-H747, Colon): 12.3 µM
GI50 (NCI-H747, NCI-H747, Colon): > 30 µM
IC50 (NCI-H747, NCI-H747, Colon): > 30 µM
EC50 [15]: 12.5 µM
GI50 [15]: 12.3 µM
IC50 [15]: 12.5 µM
EC50 (OCUG-1, OCUG-1, Liver): > 30 µM
GI50 (OCUG-1, OCUG-1, Liver): 29.9 µM
IC50 (OCUG-1, OCUG-1, Liver): > 30 µM
EC50 (OE19, OE19, Head and Neck): > 30 µM
GI50 (OE19, OE19, Head and Neck): > 30 µM
IC50 (OE19, OE19, Head and Neck): > 30 µM
EC50 (OE21, OE21, Head and Neck): > 30 µM
GI50 (OE21, OE21, Head and Neck): > 30 µM
IC50 (OE21, OE21, Head and Neck): > 30 µM
EC50 [16]: 14.4 µM
GI50 [16]: 13.7 µM
IC50 [16]: 14.4 µM
EC50 (PA-1, Female GU - Ovary): 11.6 µM
GI50 (PA-1, Female GU - Ovary): 16.2 µM
IC50 (PA-1, Female GU - Ovary): 16.3 µM
EC50 (PANC-1, PANC-1, Pancreas): 7.06 µM
GI50 (PANC-1, PANC-1, Pancreas): 7.01 µM
IC50 (PANC-1, PANC-1, Pancreas): 7.06 µM
EC50 (PC-3, Prostate): 12 µM
GI50 (PC-3, Prostate): 11.8 µM
IC50 (PC-3, Prostate): 12 µM
EC50 (PFSK-1, PFSK-1, CNS - Glioma): 14.7 µM
GI50 (PFSK-1, PFSK-1, CNS - Glioma): 14.6 µM
IC50 (PFSK-1, PFSK-1, CNS - Glioma): 14.7 µM
EC50 (PSN1, PSN-1, Pancreas): 12 µM
GI50 (PSN1, PSN-1, Pancreas): 12 µM
IC50 (PSN1, PSN-1, Pancreas): 12 µM
EC50 (RD, Soft Tissue - Sarcoma): 2.98 µM
GI50 (RD, Soft Tissue - Sarcoma): 2.96 µM
IC50 (RD, Soft Tissue - Sarcoma): 2.98 µM
EC50 (RKO, Colon): 7.22 µM
GI50 (RKO, Colon): 7.92 µM
IC50 (RKO, Colon): 7.92 µM
EC50 (RKOE6, RKOE6, Colon): 6.95 µM
GI50 (RKOE6, RKOE6, Colon): 6.93 µM
IC50 (RKOE6, RKOE6, Colon): 6.95 µM
EC50 (RPMI-6666, RPMI 6666, Lymphoma): 10.4 µM
GI50 (RPMI-6666, RPMI 6666, Lymphoma): 10.7 µM
IC50 (RPMI-6666, RPMI 6666, Lymphoma): 10.7 µM
EC50 [17]: 5.77 µM
GI50 [17]: 6.13 µM
IC50 [17]: 6.15 µM
EC50 (RPMI-8226, RPMI 8226, Myeloma): 2.02 µM
GI50 (RPMI-8226, RPMI 8226, Myeloma): 1.95 µM
IC50 (RPMI-8226, RPMI 8226, Myeloma): 2.02 µM
EC50 (RS4-11, RS4, 11, Leukemia): 6.43 µM
GI50 (RS4-11, RS4, 11, Leukemia): 6.3 µM
IC50 (RS4-11, RS4, 11, Leukemia): 6.43 µM
EC50 (Raji, Lymphoma): 8.04 µM
GI50 (Raji, Lymphoma): 8.04 µM
IC50 (Raji, Lymphoma): 8.04 µM
EC50 (Ramos, Ramos (RA 1), Lymphoma): 4.39 µM
GI50 (Ramos, Ramos (RA 1), Lymphoma): 4.39 µM
IC50 (Ramos, Ramos (RA 1), Lymphoma): 4.39 µM
EC50 [18]: 15.7 µM
GI50 [18]: 15.1 µM
IC50 [18]: 15.7 µM
EC50 (SCC-4, SCC-4, Head and Neck): > 30 µM
GI50 (SCC-4, SCC-4, Head and Neck): > 30 µM
IC50 (SCC-4, SCC-4, Head and Neck): > 30 µM
EC50 (SCC-9, SCC-9, Head and Neck): 26.7 µM
GI50 (SCC-9, SCC-9, Head and Neck): 27.3 µM
IC50 (SCC-9, SCC-9, Head and Neck): 27.3 µM
EC50 (SCC-25, SCC-25, Head and Neck): > 30 µM
GI50 (SCC-25, SCC-25, Head and Neck): > 30 µM
IC50 (SCC-25, SCC-25, Head and Neck): > 30 µM
EC50 (SCaBER, Bladder): 11.5 µM
GI50 (SCaBER, Bladder): 11.4 µM

Source: US11331299B2, “Medicinal use of serrulatane diterpenes” (The University of Sydney, priority 2016, dated 2022)
